From patent publication US9274101B2 (BIOLOG, Inc., priority 2001, dated 2016)

Legend:
E. coli MG1655 = type: cell-based, Escherichia coli
HL-60 cells [1] = assay: HL-60 responses to selected compounds at a range of concentrations; type: cell-based, human; conditions: for response in words: 0.033 to 20 mM; for activity at 30 µM / activity at 100 µM / activity at 330 µM / activity at 1000 µM / activity at 3300 µM / activity at 10000 µM / activity at 15000 µM / activity at 20000 µM: Homo sapiens, HL-60, read-out: HL-60 Cell Responses to Selected Compounds from PM1 and PM2; for activity at 30 µM: Conc. 0.03 mM; for activity at 100 µM: Conc. 0.10 mM; for activity at 330 µM: Conc. 0.33 mM; for activity at 1000 µM: Conc. 1.00 mM; for activity at 3300 µM: Conc. 3.3 mM; for activity at 10000 µM: Conc. 10 mM; for activity at 15000 µM: Conc. 15 mM; for activity at 20000 µM: Conc. 20 mM
Experimental: In this Example, methods for testing unattached cells for their ability to use various concentrations of selected carbon sources are described. The carbon sources used in this Example were identified by the methods disclosed in Example 27. Similarly, HL-60 cells were cultured as described in Example 27.
After washing, HL-60 cells were resuspended in DME-R. An aliquot of the cell suspension was counted by trypan blue exclusion and the cell density was adjusted to 6.67×10^5/mL. Fifty μL of DME-R were added to each well of the appropriate number of half area, 96-well plates, followed by 23 μL of the appropriate dilution of each test energy source. Stocks of 133 mM of each test chemical were prepared in tissue culture grade water, sterile filtered, and dilutions were prepared in a master plate so that, upon dilution in a total volume of 150 μL, the final concentrations would be 0.033 to 20 mM. Negative control wells received 23 μL of tissue culture grade water. The cells were plated at a volume of 75 μL/well, giving a final cell density of 5×10^4/well. For each plate containing energy sources and cells, a second, control plate containing only energy sources was prepared. Plates were incubated at 5% CO2, 90-100% humidity, and 37° C. for 24 hours prior to addition of the MTS/MPMS colorometric reagent (7.5 μL/well). The color formed in each well after an additional 24 hour incubation period, was measured on a plate reader at 490 nm with a reference wavelength of 650 nm. OD values from the control plate were subtracted from the OD values obtained with cells prior to normalizing the data to % negative control (cells without added energy source).

[2] = system: Undifferentiated HL-60 cells; assay: Energy use by undifferentiated HL-60 cells; type: cell-based, human; conditions: for activity at 30 µM / activity at 100 µM / activity at 330 µM / activity at 1000 µM / activity at 3300 µM / activity at 10000 µM / activity at 15000 µM / activity at 20000 µM: Homo sapiens, HL-60, 24 h, read-out: Energy Use by Undifferentiated HL-60 Cells; for activity at 30 µM: Conc. 0.03 mM; for activity at 100 µM: Conc. 0.10 mM; for activity at 330 µM: Conc. 0.33 mM; for activity at 1000 µM: Conc. 1.00 mM; for activity at 3300 µM: Conc. 3.3 mM; for activity at 10000 µM: Conc. 10 mM; for activity at 15000 µM: Conc. 15 mM; for activity at 20000 µM: Conc. 20 mM
HL-60 cells [3] = assay: Effect of 1 mM chloramphenicol on HL-60 energy utilization; type: cell-based, human; conditions: for Effect of 1 mM chloramphenicol on HL-60 Energy Utilization: negative control without chloramphenicol
Experimental: In this Example, methods for testing antimicrobial-induced modulation in growth of a cell are described. The antimicrobial selected for this Example is chloramphenicol. However, this application is not intended to be limited to the use of chloramphenicol, translation inhibitors or even antibiotics. HL-60 cells were cultured as described in Example 27.
After washing, HL-60 cells were resuspended in DME-R. An aliquot of the cell suspension was counted by trypan blue exclusion and the cell density was adjusted to 6.67×10^5[…]. Fifty μL of DME-R containing 3 mM chloramphenicol were added to each well of the appropriate number of half area, 96-well plates, followed by 25 μL of the appropriate dilution of each test energy source. Stocks of 133 mM of each test chemical were prepared in tissue culture grade water, sterile filtered, and dilutions were prepared in a master plate so that, upon dilution in a total volume of 150 μL, the final concentrations would be 0.033 to 20 mM. Negative control wells received 25 μL of tissue culture grade water. The cells were plated at a volume of 75 μL/well, giving a final cell density of 5×10^4/well. For each plate containing energy sources and cells, a second, control plate containing only energy sources was prepared. Plates were incubated at 5% CO2, 90-100% humidity, and 37° C. for 24 hours prior to addition of the MTS/MPMS colorimetric reagent (7.5 μL/well). The color formed in each well 24 hours after addition of the colorimetric reagent, was measured with a plate reader at 490 nm with a reference wavelength of 650 nm. OD values from the control plate were subtracted from the OD values obtained with cells prior to normalizing the data to % negative control.
Data shown in Table 25 are expressed as percent negative control without chloramphenicol. […] Chloramphenicol clearly has a different effect on the cells than citrate shown in Example 33.

[4] = energy source 0.03 mM with 1 mM chloramphenicol
[5] = energy source 0.10 mM with 1 mM chloramphenicol
[6] = energy source 0.33 mM with 1 mM chloramphenicol
[7] = energy source 1.00 mM with 1 mM chloramphenicol
[8] = energy source 3.3 mM with 1 mM chloramphenicol
[9] = energy source 10 mM with 1 mM chloramphenicol
[10] = energy source 15 mM with 1 mM chloramphenicol
[11] = energy source 20 mM with 1 mM chloramphenicol

SMILES | activity at 30 µM (HL-60 cells [1]) | activity at 100 µM (HL-60 cells [1]) | activity at 330 µM (HL-60 cells [1]) | activity at 1000 µM (HL-60 cells [1]) | activity at 3300 µM (HL-60 cells [1]) | activity at 10000 µM (HL-60 cells [1]) | activity at 15000 µM (HL-60 cells [1]) | activity at 20000 µM (HL-60 cells [1]) | activity at 30 µM [2] | activity at 100 µM [2] | activity at 330 µM [2] | activity at 1000 µM [2] | activity at 3300 µM [2] | activity at 10000 µM [2] | activity at 15000 µM [2] | activity at 20000 µM [2] | Effect of 1 mM chloramphenicol on HL-60 Energy Utilization (HL-60 cells [3]; [4]) | Effect of 1 mM chloramphenicol on HL-60 Energy Utilization (HL-60 cells [3]; [5]) | Effect of 1 mM chloramphenicol on HL-60 Energy Utilization (HL-60 cells [3]; [6]) | Effect of 1 mM chloramphenicol on HL-60 Energy Utilization (HL-60 cells [3]; [7]) | further results
NC(=O)C[C@H](N)C(=O)O [L-asparagine] | 134% | 149% | 138% | 149% | 135% | 137% | 128% | 118% | 128% | 118% | 118% | 124% | 136% | 141% | 153% | 157% | 6.3 % of negative control | 17.4 % of negative control | 7.6 % of negative control | 3.1 % of negative control | suitability as nitrogen source (growth, purple color) (E. coli MG1655): positive; response in words (HL-60 cells [1]): strongly utilized, even at very low concentrations; Effect of 1 mM chloramphenicol on HL-60 Energy Utilization (HL-60 cells [3]; [8]): 12.1 % of negative control; Effect of 1 mM chloramphenicol on HL-60 Energy Utilization (HL-60 cells [3]; [9]): 22.9 % of negative control; Effect of 1 mM chloramphenicol on HL-60 Energy Utilization (HL-60 cells [3]; [10]): 20.9 % of negative control; Effect of 1 mM chloramphenicol on HL-60 Energy Utilization (HL-60 cells [3]; [11]): 30.2 % of negative control
NC(=O)CC[C@H](N)C(=O)O [L-glutamine] | 147% | 161% | 162% | 168% | 161% | 151% | 127% | 92% | 167% | 214% | 227% | 237% | 249% | 220% | 198% | 172% | 33.7 % of negative control | 39.8 % of negative control | 60.6 % of negative control | 69.0 % of negative control | suitability as nitrogen source (growth, purple color) (E. coli MG1655): positive; response in words (HL-60 cells [1]): strongly utilized, even at very low concentrations; energy source use in words ([2]; undifferentiated HL-60 cells): responsive to high concentrations; Effect of 1 mM chloramphenicol on HL-60 Energy Utilization (HL-60 cells [3]; [8]): 85.0 % of negative control; Effect of 1 mM chloramphenicol on HL-60 Energy Utilization (HL-60 cells [3]; [9]): 90.0 % of negative control; Effect of 1 mM chloramphenicol on HL-60 Energy Utilization (HL-60 cells [3]; [10]): 89.0 % of negative control; Effect of 1 mM chloramphenicol on HL-60 Energy Utilization (HL-60 cells [3]; [11]): 82.1 % of negative control; protective effect of energy source (HL-60 cells [3]; in the presence of 1 mM chloramphenicol): limit the effect to maintenance of the cells at the level seen with no chloramphenicol and no added energy source
N[C@@H](Cc1c[nH]cn1)C(=O)O [L-histidine] | 123% | 121% | 128% | 135% | 146% | 120% | 123% | 95% | 119% | 117% | 105% | 118% | 162% | 144% | 149% | 104% | 6.9 % of negative control | 4.3 % of negative control | 7.3 % of negative control | 7.2 % of negative control | suitability as nitrogen source (growth, purple color) (E. coli MG1655): not suitable; Effect of 1 mM chloramphenicol on HL-60 Energy Utilization (HL-60 cells [3]; [8]): 13.9 % of negative control; Effect of 1 mM chloramphenicol on HL-60 Energy Utilization (HL-60 cells [3]; [9]): 19.1 % of negative control; Effect of 1 mM chloramphenicol on HL-60 Energy Utilization (HL-60 cells [3]; [10]): 13.1 % of negative control; Effect of 1 mM chloramphenicol on HL-60 Energy Utilization (HL-60 cells [3]; [11]): 8.4 % of negative control
CC(C)[C@H](N)C(=O)O [L-valine] | 117% | 137% | 134% | 135% | 133% | 125% | 122% | 112% | 89.6% | 93.2% | 83.8% | 78.6% | 86.4% | 89% | 97.7% | 104% | 6.6 % of negative control | 4.3 % of negative control | 4.0 % of negative control | 3.2 % of negative control | suitability as nitrogen source (growth, purple color) (E. coli MG1655): not suitable; Effect of 1 mM chloramphenicol on HL-60 Energy Utilization (HL-60 cells [3]; [8]): 4.3 % of negative control; Effect of 1 mM chloramphenicol on HL-60 Energy Utilization (HL-60 cells [3]; [9]): 5.5 % of negative control; Effect of 1 mM chloramphenicol on HL-60 Energy Utilization (HL-60 cells [3]; [10]): 2.6 % of negative control; Effect of 1 mM chloramphenicol on HL-60 Energy Utilization (HL-60 cells [3]; [11]): 7.5 % of negative control
COC(=O)CCC(=O)O [mono methyl succinate] | 118% | 130% | 133% | 142% | 167% | 173% | 139% | 93.3% | 104% | 99.9% | 112% | 141% | 182% | 223% | 261% | 199% | 10.4 % of negative control | −2.1 % of negative control | 2.6 % of negative control | 1.8 % of negative control | Effect of 1 mM chloramphenicol on HL-60 Energy Utilization (HL-60 cells [3]; [8]): 43.3 % of negative control; Effect of 1 mM chloramphenicol on HL-60 Energy Utilization (HL-60 cells [3]; [9]): 78.1 % of negative control; Effect of 1 mM chloramphenicol on HL-60 Energy Utilization (HL-60 cells [3]; [10]): 47.8 % of negative control; Effect of 1 mM chloramphenicol on HL-60 Energy Utilization (HL-60 cells [3]; [11]): 16.2 % of negative control
